Structures can show the parent of a compound that is named as a salt. Where two headings read alike, the source gives them in different places.
What was measured:
[1] = Host cell cytotoxicity (C2C12 viability); type: cell-based, Mouse; conditions: mouse; for viability at 48 h, 10 µM: < 50% viability considered cytotoxic; for CC50 at 48 h: viability calculated at 10 μM
Description: Antiparasitic activity and cytotoxicity of compounds were determined as described before (da Silva et al., Boudreau et al.). Mouse myoblasts cell line C2C12 (ATCCCRL-1772), were maintained in high glucose (4.5 g/L glucose) Dulbecco’s modified Eagle’s medium (DMEM Gibco), supplemented with 1% penicillin–streptomycin 10,000 U/mL (Gibco) and 5% fetal bovine serum (FBS, Sigma-Aldrich) at 37 °C with 5% CO2. parasites (CAI/72 strain, DTU TcI) were maintained by weekly coinfection with C2C12 cells. For all activity assays, C2C12 cells were infected at a 10:1 parasite-to-cell ratio with culture-derived trypomastigotes, which were harvested from the supernatant of infected C2C12 cells. After adding compounds to 384-well black clear-bottom plates (Greiner cat. no. 781091), trypomastigotes (7000 parasites/well) and C2C12 cells (700 cells/well) were seeded in a total volume of 50 μL of DMEM per well in the 384-well plates. Compounds were first tested at 10 μM. […] After 48 h at 37 °C and 5% CO2, plates were fixed with 4% formaldehyde solution for at least 1 h, washed with 1× PBS, and stained with 5 μg/mL of 4′,6-diamidino-2-phenylindole (DAPI) for at least 1 h prior to reading. Plates were imaged with the automated ImageXpress MicroXL microscope (Molecular Devices) and analyzed by MetaXpress software (Molecular Devices) using a custom module optimized for this assay. Infection levels (parasites per host cell) were normalized to the positive control (40 μM BNZ) and negative control (DMSO). Antiparasitic activity (EC50) ± standard deviation (SD) and host cell cytotoxicity (C2C12 viability) values were determined from the DRC using Prism software (GraphPad Software, La Jolla, CA). Every assay has three biological replicates, each in triplicates (n = 9 data points).

T. cruzi CAI/72 strain = assay: Antiparasitic activity in C2C12 cells infected with T. cruzi CAI/72 (image-based assay); type: cell-based; conditions: Trypanosoma cruzi; for EC50: mean of three experiments in triplicate (n = 9) ± SD
Description: Antiparasitic activity and cytotoxicity of compounds were determined as described before (da Silva et al., Boudreau et al.). Mouse myoblasts cell line C2C12 (ATCCCRL-1772), were maintained in high glucose (4.5 g/L glucose) Dulbecco’s modified Eagle’s medium (DMEM Gibco), supplemented with 1% penicillin–streptomycin 10,000 U/mL (Gibco) and 5% fetal bovine serum (FBS, Sigma-Aldrich) at 37 °C with 5% CO2. parasites (CAI/72 strain, DTU TcI) were maintained by weekly coinfection with C2C12 cells. For all activity assays, C2C12 cells were infected at a 10:1 parasite-to-cell ratio with culture-derived trypomastigotes, which were harvested from the supernatant of infected C2C12 cells. After adding compounds to 384-well black clear-bottom plates (Greiner cat. no. 781091), trypomastigotes (7000 parasites/well) and C2C12 cells (700 cells/well) were seeded in a total volume of 50 μL of DMEM per well in the 384-well plates. Compounds were first tested at 10 μM. […] Plates were imaged with the automated ImageXpress MicroXL microscope (Molecular Devices) and analyzed by MetaXpress software (Molecular Devices) using a custom module optimized for this assay. Infection levels (parasites per host cell) were normalized to the positive control (40 μM BNZ) and negative control (DMSO). Antiparasitic activity (EC50) ± standard deviation (SD) and host cell cytotoxicity (C2C12 viability) values were determined from the DRC using Prism software (GraphPad Software, La Jolla, CA). Every assay has three biological replicates, each in triplicates (n = 9 data points).

recombinant Cz (cruzain) = target: T1, recombinant Cz (cruzain) (Trypanosoma cruzi, UniProt P25779); assay: biochemical; conditions: read-out: Cz inhibition (%), 10 µM
T1 construct: Cz was expressed and purified as described in da Silva et al; made in house
Description: The screening assay was performed using 1 nM of Cz diluted in 0.1 M sodium acetate pH 5.5, 1 mM dithiothreitol (DTT), and 0.01% Triton X-100. Cz was expressed and purified as described in da Silva et al. The reaction starts after 10 min incubating the enzyme with the compounds (10 μM), when adding 2.5 μM of the substrate Z-FR-AMC final concentration (Z-Phe-Arg-amidomethylcoumarin, Sigma-Aldrich, C9521) diluted in the same assay buffer (final volume of 30 μL). The experiment was performed for 10 min. […] The DRC was performed with at least nine different concentrations of the inhibitors, diluted by 2-fold serial dilution, ranging from […] to 10 μM.
All experiments were accomplished in a 384-well black microplate, using a Synergy HTX (Biotek) plate reader at 25 °C with absorption/emission wavelengths of 360/460 nm. All assays were performed in triplicate wells and DMSO was used as a vehicle control. Enzymatic activity was measured and normalized to DMSO controls, and the inhibitor E-64 (10 μM) was used as a positive control for all assays. All experiments were performed in triplicates, with at least two independent assays (n = 6 data points). IC50 values were determined through nonlinear regression. Obtained data were treated and analyzed using GraphPad Prism 9.0 (GraphPad Software, La Jolla, California).

[2] = C2C12 myoblast cells infected with trypomastigotes
[3] = intracellular amastigotes in C2C12 cells, 48 h, read-out: EC50 Tc CAI/72
[4] = 10 µM, C2C12 infected cells, read-out: Anti-Tc CAI/72 activity (%)
[5] = C2C12, read-out: Anti-Tc CAI/72 activity (%)

T1 sequence (P25779 123-337 limits assumed): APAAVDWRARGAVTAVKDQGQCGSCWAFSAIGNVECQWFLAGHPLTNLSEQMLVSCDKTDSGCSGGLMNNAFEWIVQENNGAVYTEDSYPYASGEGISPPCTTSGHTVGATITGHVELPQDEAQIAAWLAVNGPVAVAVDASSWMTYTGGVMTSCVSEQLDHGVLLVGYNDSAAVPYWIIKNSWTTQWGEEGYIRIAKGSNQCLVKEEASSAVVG

## O=C(Cn1ccnc1[N+](=O)[O-])NCc1ccccc1 [BZ, Benznidazole, reference compound]
[1]; [2]
  viability at 48 h, 10 µM: > 100%
  CC50 at 48 h: > 10 µM
T. cruzi CAI/72 strain; 40 µM (BZ), C2C12 infected cells, read-out: Anti-Tc CAI/72 activity (%)
  inhibition at 40 µM: 81.7%
T. cruzi CAI/72 strain; [3]
  EC50: 5.79 ± 1.2 µM

## C/C(=N\NC(N)=S)c1ccc(C)cc1 [Compound S1a, (E)-2-(1-(4-Tolyl)ethylidene)hydrazine-1-carbothioamide]
[1]
  viability at 48 h, 10 µM: > 100%
Recombinant Cz (cruzain)
  inhibition at 10 µM: 74.8%
T. cruzi CAI/72 strain; [4]
  inhibition at 10 µM: 42.3%

## COc1ccc(/C(C)=N/NC(N)=S)cc1 [Compound S1b, (E)-2-(1-(4-Methoxyphenyl)ethylidene)hydrazine-1-carbothioamide]
[1]; [2]
  viability at 48 h, 10 µM: > 100%
Recombinant Cz (cruzain)
  inhibition at 10 µM: 87.1%
T. cruzi CAI/72 strain; [4]
  inhibition at 10 µM: 23.2%

## C/C(=N\NC(N)=S)c1ccc([N+](=O)[O-])cc1 [Compound S1c, (E)-2-(1-(4-Nitrophenyl)ethylidene)hydrazine-1-carbothioamide]
[1]; [2]
  viability at 48 h, 10 µM: > 100%
Recombinant Cz (cruzain)
  inhibition at 10 µM: 97.6%
T. cruzi CAI/72 strain; [4]
  inhibition at 10 µM: 20.6%

## C/C(=N\NC(N)=S)c1ccc(C(F)(F)F)cc1 [Compound S1d, (E)-2-(1-(4-(Trifluoromethyl)phenyl)ethylidene)hydrazine-1-carbothioamide]
[1]; [2]
  viability at 48 h, 10 µM: 93.1%
Recombinant Cz (cruzain)
  inhibition at 10 µM: 85.8%
T. cruzi CAI/72 strain; [4]
  inhibition at 10 µM: 43.8%

## C/C(=N\NC(N)=S)c1ccc(Br)cc1 [Compound S1f, (E)-2-(1-(4-Bromophenyl)ethylidene)hydrazine-1-carbothioamide]
[1]; [2]
  viability at 48 h, 10 µM: > 100%
Recombinant Cz (cruzain)
  inhibition at 10 µM: 97.1%
T. cruzi CAI/72 strain; [4]
  inhibition at 10 µM: 45.4%

## COc1cccc(/C(C)=N/N=C(/N)S)c1 [Compound S1g, (E)-2-(1-(3-Methoxyphenyl)ethylidene)hydrazine-1-carbothioamide]
[1]; [2]
  viability at 48 h, 10 µM: > 100%
Recombinant Cz (cruzain)
  inhibition at 10 µM: 95.3%
T. cruzi CAI/72 strain; [4]
  inhibition at 10 µM: 22.3%

## C/C(=N\NC(N)=S)c1ccc(F)c(F)c1 [Compound S1j, (E)-2-(1-(3,4-Difluorophenyl)ethylidene)hydrazine-1-carbothioamide]
[1]; [2]
  viability at 48 h, 10 µM: > 100%
Recombinant Cz (cruzain)
  inhibition at 10 µM: 99.8%
T. cruzi CAI/72 strain; [4]
  inhibition at 10 µM: 49.9%

## COc1ccc(/C(C)=N/NC(N)=S)c(OC)c1 [Compound S1k, (E,Z)-2-(1-(2,4-Dimethoxyphenyl)ethylidene)hydrazine-1-carbothioamide]
[1]; [2]
  viability at 48 h, 10 µM: > 100%
Recombinant Cz (cruzain)
  inhibition at 10 µM: 39.3%
T. cruzi CAI/72 strain; [4]
  inhibition at 10 µM: 0.7%

## C/C(Cc1cccc(Cl)c1)=N\NC(N)=S [Compound S1m, (E)-2-(1-(3-Chlorophenyl)propan-2-ylidene)hydrazine-1-carbothioamide]
[1]; [2]
  viability at 48 h, 10 µM: > 100%
  CC50 at 48 h: > 10 µM
Recombinant Cz (cruzain)
  inhibition at 10 µM: 72.3%
T. cruzi CAI/72 strain; [4]
  inhibition at 10 µM: 69.4%
T. cruzi CAI/72 strain; [3]
  EC50: 2.92 ± 0.16 µM

## COc1ccc(C/C(C)=N/NC(N)=S)cc1 [Compound S1n, (E)-2-(1-(4-Methoxyphenyl)propan-2-ylidene)hydrazine-1-carbothioamide]
[1]; [2]
  viability at 48 h, 10 µM: > 100%
Recombinant Cz (cruzain)
  inhibition at 10 µM: 56.2%
T. cruzi CAI/72 strain; [4]
  inhibition at 10 µM: 34.5%

## C/C(=N\NC(N)=S)c1csc2ccccc12 [Compound S1o, (E)-2-(1-(Benzo[b]thiophen-3-yl)ethylidene)hydrazine-1-carbothioamide]
[1]; [2]
  viability at 48 h, 10 µM: > 100%
Recombinant Cz (cruzain)
  inhibition at 10 µM: 100%
T. cruzi CAI/72 strain; [4]
  inhibition at 10 µM: 23.1%

## C/C(=N\NC(N)=S)c1cc2ccccc2o1 [Compound S1p, (E)-2-(1-(Benzofuran-2-yl)ethylidene)hydrazine-1-carbothioamide]
[1]; [2]
  viability at 48 h, 10 µM: > 100%
Recombinant Cz (cruzain)
  inhibition at 10 µM: 99.3%
T. cruzi CAI/72 strain; [4]
  inhibition at 10 µM: 49.7%

## C/C(=N\Nc1nc(C)cs1)c1ccc(C)cc1 [Compound S2a, (E)-4-Methyl-2-(2-(1-(4-tolyl)ethylidene)hydrazineyl)thiazole Hydrochloride]
[1]; [2]
  viability at 48 h, 10 µM: > 100%
Recombinant Cz (cruzain)
  inhibition at 10 µM: 36.8%
T. cruzi CAI/72 strain; [4]
  inhibition at 10 µM: 12.5%

## COc1ccc(/C(C)=N/Nc2nc(C)cs2)cc1 [Compound S2b, (E)-2-(2-(1-(4-Methoxyphenyl)ethylidene)hydrazineyl)-4-methylthiazole Hydrochloride]
[1]; [2]
  viability at 48 h, 10 µM: > 100%
Recombinant Cz (cruzain)
  inhibition at 10 µM: 37.5%
T. cruzi CAI/72 strain; [4]
  inhibition at 10 µM: 23.5%

## C/C(=N\Nc1nc(C)cs1)c1ccc([N+](=O)[O-])cc1 [Compound S2c, (E)-4-Methyl-2-(2-(1-(4-nitrophenyl)ethylidene)hydrazineyl)thiazole Hydrochloride]
[1]; [2]
  viability at 48 h, 10 µM: 99.2%
Recombinant Cz (cruzain)
  inhibition at 10 µM: 96.7%

## C/C(=N\Nc1nc(C)cs1)c1ccc(C(F)(F)F)cc1 [Compound S2d, (E)-4-Methyl-2-(2-(1-(4-(trifluoromethyl)phenyl)ethylidene)hydrazineyl)thiazole Hydrochloride]
[1]; [2]
  viability at 48 h, 10 µM: > 100%
Recombinant Cz (cruzain)
  inhibition at 10 µM: 41.6%

## C/C(=N\Nc1nc(C)cs1)c1ccc(C#N)cc1 [Compound S2e, (E)-4-(1-(2-(4-Methylthiazol-2-yl)hydrazineylidene)ethyl)benzonitrile Hydrochloride]
[1]; [2]
  viability at 48 h, 10 µM: > 100%
Recombinant Cz (cruzain)
  inhibition at 10 µM: 89.8%
T. cruzi CAI/72 strain; [4]
  inhibition at 10 µM: 22.4%

## C/C(=N\NC(N)=[Se])c1ccc(F)c(F)c1 [Se1j, (E)-2-(1-(3,4-Difluorophenyl)ethylidene)hydrazine-1-carboselenoamide]
[1]
  viability at 48 h, 10 µM: 27.7%
Recombinant Cz (cruzain)
  inhibition at 10 µM: 102%

## COc1ccc(/C(C)=N/NC(N)=[Se])c(OC)c1 [Se1k, (E,Z)-2-(1-(2,4-Dimethoxyphenyl)ethylidene)hydrazine-1-carboselenoamide]
[1]
  viability at 48 h, 10 µM: 43.7%
Recombinant Cz (cruzain)
  inhibition at 10 µM: 92.5%

## COc1ccc(/C(C)=N/Nc2nc(C)c[se]2)c(OC)c1 [Se2k, (E,Z)-2-(2-(1-(2,4-Dimethoxyphenyl)ethylidene)hydrazineyl)-4-methyl-1,3-selenazole Hydrochloride]
[1]
  viability at 48 h, 10 µM: > 100%
T. cruzi CAI/72 strain; [5]
  inhibition at 10 µM: 38.1%

## C/C(=N\Nc1nc(C)c[se]1)c1ccsc1 [Se2l, (E)-4-Methyl-2-(2-(1-(thiophen-3-yl)ethylidene)hydrazineyl)-1,3-selenazole Hydrochloride]
[1]
  viability at 48 h, 10 µM: > 100%
  CC50 at 48 h: > 10 µM
T. cruzi CAI/72 strain; C2C12, 48 h, read-out: EC50 Tc CAI/72, intracellular amastigotes in C2C12 cells, 48 h
  EC50: 3.73 µM
T. cruzi CAI/72 strain; [5]
  inhibition at 10 µM: 50.4%

## C/C(=N\Nc1nc(C)c[se]1)C12CC3CC(CC(C3)C1)C2 [Se2q, 2-(2-((E)-1-((3s)-Adamantan-1-yl)ethylidene)hydrazineyl)-4-methyl-1,3-selenazole]
[1]
  viability at 48 h, 10 µM: > 100%
T. cruzi CAI/72 strain; [5]
  inhibition at 10 µM: 40.6%

Source: paper PMC12320831, “Synthesis and Biological Evaluation of New Chalcogen Semicarbazone (S, Se) and Their Azole Derivatives against Chagas Disease” (Journal of Medicinal Chemistry, 2024)
